Among the data in ChEMBL document CHEMBL1143697, “Lemnalosides A-D, decalin-type bicyclic diterpene glycosides from the marine soft coral Lemnalia sp” (2007) are zone of inhibition and Activity values, retold here.

In experiment [1] the test system is Streptomyces. The experiment can be described thus: microbe, parasite or virus in culture. Format: functional. The following applies: 85E, read-out: IZ.
Description: Growth inhibition of Streptomyces 85E at 20 ug/disk by hyphae formation inhibition assay
Experiment [2] concerns Streptomyces. Description: Growth inhibition of Streptomyces 85E at 10 ug/disk by hyphae formation inhibition assay. Format: functional, organism-based.
Experiment [3] concerns Streptomyces. Description: Growth inhibition of Streptomyces 85E at 2.5 ug/disk by hyphae formation inhibition assay. Format: functional, organism-based.
In experiment [4] the test system is Streptomyces. Description: microbe, parasite or virus in culture. The following applies: 85E, read-out: IZ.
Description: Growth inhibition of Streptomyces 85E assessed as induction of bald phenotype effect at 5 ug/disk by hyphae formation inhibition assay
Experiment [5] deals with Streptomyces. The experiment can be described thus: Growth inhibition of Streptomyces 85E by hyphae formation inhibition assay. Format: functional, organism-based.

Each structure is given as a SMILES string. Activity calls are given as the source filed them. No cut-off for these calls is given here.

Turning to `CC1=C[C@H]2[C@H]([C@H](C)CCC[C@@H](C)C3OC[C@H]4O[C@@H](O3)[C@H](O)[C@@H](O)[C@@H]4O)CC=C(C)[C@H]2CC1` (stereo not given in full) [LEMNABOURSIDE], the zone of inhibition at 20 µg/disc in the experiment with Streptomyces [1] was found to be 10 mm. Moreover, in the experiment on Streptomyces [2], the result was inactive.

For the compound `CC(=O)OC[C@H]1O[C@@H](O[C@@]2(C)CC[C@@H]([C@H](C)CCC=C(C)C)[C@@H]3C=C(C)CC[C@@H]32)[C@H](O)[C@@H](O)[C@H]1O` [LEMNALOSIDE A], the zone of inhibition at 20 µg/disc in the experiment with Streptomyces [1] was 11 mm. Further, the result in the experiment with Streptomyces [2] was inactive.

With `CC(=O)O[C@H]1[C@@H](O)[C@@H](CO)O[C@@H](O[C@@]2(C)CC[C@@H]([C@H](C)CCC=C(C)C)[C@@H]3C=C(C)CC[C@@H]32)[C@@H]1O` [LEMNALOSIDE B], the zone of inhibition at 20 µg/disc in the experiment with Streptomyces [1] worked out at 18 mm. Besides, the outcome in the experiment on Streptomyces [3] was Active.

`N#CC(=C(/N)Sc1ccccc1N)/C(C#N)=C(\N)Sc1ccccc1N`: in the experiment on Streptomyces [1], the zone of inhibition at 20 µg/disc worked out at 15 mm. In the experiment on Streptomyces [4], the zone of inhibition at 5 µg/disc is 15 mm.

Turning to `CO[C@@]12[C@H](COC(N)=O)C3=C(C(=O)C(C)=C(N)C3=O)N1C[C@@H]1N[C@@H]12` [MITOMYCIN], in the experiment on Streptomyces [1], the zone of inhibition at 20 µg/disc was 30 mm.

Take `C=C(C)C(CC[C@@H](C)[C@@H]1CC[C@](C)(O[C@@H]2O[C@H](COC(C)=O)[C@H](O)[C@H](O)[C@H]2O)[C@H]2CCC(C)=C[C@@H]12)OO` (stereo not given in full): the outcome in the experiment on Streptomyces [5] was inactive.
